Read-outs that look alike come from different tables or passages of the source.
Assays:
[1] = target: T1, cytosolic NMT (N-myristoyltransferase) of L1210 cells (Mus musculus, UniProt O70310); experiment: Inhibition of the cytosolic NMT activity of cancerous L1210 cells; type: biochemical, murine
T1 construct: The supernatant is then used as a source of NMT; endogenous in cells; host or cells: L1210 murine leukemia cells, cytosol (105,000 g supernatant)
T1 sequence (O70310 1-496): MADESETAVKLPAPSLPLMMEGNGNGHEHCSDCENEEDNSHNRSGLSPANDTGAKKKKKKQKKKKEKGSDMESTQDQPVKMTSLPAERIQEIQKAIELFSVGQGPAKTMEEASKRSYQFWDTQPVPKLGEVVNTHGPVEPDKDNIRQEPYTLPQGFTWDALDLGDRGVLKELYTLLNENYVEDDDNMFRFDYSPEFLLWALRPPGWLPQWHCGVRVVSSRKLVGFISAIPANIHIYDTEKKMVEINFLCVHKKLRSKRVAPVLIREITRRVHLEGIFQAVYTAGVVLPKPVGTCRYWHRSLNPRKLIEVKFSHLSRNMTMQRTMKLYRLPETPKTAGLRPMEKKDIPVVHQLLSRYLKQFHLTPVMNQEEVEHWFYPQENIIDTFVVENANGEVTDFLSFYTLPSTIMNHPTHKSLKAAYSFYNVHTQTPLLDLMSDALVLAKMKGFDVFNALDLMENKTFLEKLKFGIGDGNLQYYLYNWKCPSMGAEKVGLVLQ
Description: Mass-cultured L1210 cells (murine leukemia) are used as a source of […].
They are cultured in RPMI 1640 supplemented with 50 U/ml of penicillin, […] of streptomycin, 2 mM of glutamine, 10 mM HEPES and 10% of fetal calf serum, maintained in a 5% CO2 /95% air atmosphere and at 37° C.
They are harvested and then washed in PBS by centrifuging at low speed. The final cell pellet is resuspended in a 50 mM HEPES buffer, pH 7.4, containing 2 mM EGTA, 1 mM DTT and 1 mM PMSF. The cells are opened by sonication at 4° C. and homogenized by a to and fro movement in a glass/glass Potter. The cell homogenate is then centrifuged at low speed (10,000 rpm, 10 minutes) in order to precipitate the cell debris and the supernatant is subjected to ultracentrifugation at 105,000 g for 1 hour.
The supernatant is then used as a source of NMT. The measurement of activity is carried out according to the method described by Towler and Glazer (PNAS, 1986, 83, 2812) using as substrate peptide either the peptide derived from the NH2 terminal of the pp60src oncogene product: GSSKSKPKDP (DP), or the peptide derived from the NH2 terminal of the gag product, a structural protein of the Maloney murine leucemic virus: GQTVTTPL (T3) at a final concentration of 0.3 mM.

[2] = target: T2, microsomal NMT of CEM cells (Homo sapiens, UniProt P30419); experiment: Inhibition of the myristoylation of a gag-derived peptide of HIV-1 (subtype BRU), microsomal fraction of CEM cells; type: biochemical; conditions: 20-AA p18 peptide of HIV-1 (subtype BRU), 30 minutes at 37° C., read-out: IC50 during incubation with the microsomal fraction
T2 construct: The pellet (microsomes) and the supernatant (cytosol) are recovered independently and then frozen; endogenous in cells; host or cells: CEM immortalized T lymphocytes, microsomal pellet (105,000 g), treated with Triton 770
T2 sequence (P30419 1-496): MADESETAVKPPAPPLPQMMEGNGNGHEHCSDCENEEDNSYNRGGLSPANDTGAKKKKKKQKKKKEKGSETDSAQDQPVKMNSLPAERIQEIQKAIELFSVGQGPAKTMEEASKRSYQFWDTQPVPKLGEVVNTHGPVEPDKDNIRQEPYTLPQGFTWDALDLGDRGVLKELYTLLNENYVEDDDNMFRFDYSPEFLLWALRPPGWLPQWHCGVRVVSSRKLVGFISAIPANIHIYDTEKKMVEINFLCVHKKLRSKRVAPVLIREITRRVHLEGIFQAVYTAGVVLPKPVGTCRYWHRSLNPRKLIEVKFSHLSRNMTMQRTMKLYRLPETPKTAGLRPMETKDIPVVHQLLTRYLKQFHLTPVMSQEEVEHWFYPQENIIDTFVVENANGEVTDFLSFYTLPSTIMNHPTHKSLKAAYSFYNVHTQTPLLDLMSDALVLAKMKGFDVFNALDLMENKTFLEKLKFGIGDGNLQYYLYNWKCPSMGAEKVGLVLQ
Description: Immortalized T lymphocytes (CEM) are mass- cultured as described in Example 57, and then harvested by centrifugation and washed in PBS.
These cells are sonicated (3 brief periods of 10 seconds) and then homogenized in a glass/glass Potter.
This homogenate, in which all the cells have been opened (checked under a microscope), is subjected to centrifugation for 1 h 10) at 105,000 g. The pellet (microsomes) and the supernatant (cytosol) are recovered independently and then frozen.
The NMT activity is then measured following the procedure of Towler and Glaser but stopping the reaction with […] of acetonitrile in order to avoid precipitation of the myristoylated peptide. This 20-AA peptide: NH2^[…] COOH, is derived from p18 of the HIV-1 virus (subtype BRU).
These experimentations are carried out using a cytosolic (40 μl) or microsomal (20 μl treated with 4 μl of 10% Triton 770) source of CEM cells in the presence of increasing concentrations of the compounds of the invention (1 to 1,000 μM, final). The samples, incubated for 30 minutes at 37° C. and stopped with 200 μl of acetonitrile, are then analyzed by HPLC and the myristoylation of p18 quantified.

HL60 cells = experiment: Differentiation of cultured HL60 cells; type: cell-based, human
Description: Cultured HL60 cells are treated for 6 days with the compounds dissolved in a minimum of methanol at 9 different concentrations. The doses chosen encompass the IC50 determined beforehand using the MTT test (Carmichael et al., Cancer Res., 1986, 47, 936).
The cells are washed (450 μl), resuspended in the same volume of complete medium and incubated for 1 hour at 37° C. in the presence of 7 ug/ml of DNA-specific fluorochrome.
The measurements, which are carried out by means of a laser cytometer, make it possible to estimate the percentage of cells accumulated, and therefore differentiated, in the G0 and G1 phase of the cell cycle.

HIV-1 virus = experiment: Protective effect on CEM cells against infection by the HIV virus; type: cell-based
Excerpt: The method used is described by […] et al. (J. Natl. Cancer Inst., 1989, 81, 577).

[3] = Toxicity on CEM cells in the HIV protection test; type: cell-based; conditions: human, method of WEISLOW et al., unit printed m, read-out: toxicity (IC50)
Excerpt: The method used is described by WEISLOW et al. (J. Natl. Cancer Inst., 1989, 81, 577).

[4] = HL60 cells, 6 days, cells accumulated in G0 and G1 phase, laser cytometer

| Structure (SMILES) | IC50 ([1]; cytosolic NMT of L1210 cells, substrate peptide DP (pp60src) or T3 (gag), 0.3 mM, read-out: IC50) | IC50 [2] | doses to which the marked differentiating effect can extend (HL60 cells; [4]) | IC50 [1] | doses to which the marked differentiating effect can extend (HL60 cells; 144 h) | EC50 (HIV-1 virus; Human immunodeficiency virus 1, CCRF-CEM, HIV infection, method of WEISLOW et al.) | therapeutic index (HIV-1 virus; toxicity IC50 / protective EC50) | CC50 [3] |
| --- | --- | --- | --- | --- | --- | --- | --- | --- |
| CCCCCCCCCCCCCC(=O)N1Cc2ccccc2C[C@H]1C(=O)O [Example 1, N-Myristoyl-3-(S)-carboxy-(1,2,3,4)-tetrahydroisoquinoline] | 0.18 µM | 100 µM | below 50 ug/ml |  |  |  |  |  |
| CCCCCCCCCCCCCC(=O)NC(Cc1ccccc1)P(=O)(O)OCC (stereo not drawn) [Example 16, ETHYL 1-MYRISTOYLAMINO-2-[…]] |  |  |  | 2 µM | below 50 ug/ml |  |  |  |
| COCCCCCCCCCCCC(=O)N[C@@H](Cc1ccccc1)C(=O)O [Example 49, N-(12-METHOXYLAUROYL)-(S)-PHENYLALANINE] |  |  | below 50 ug/ml |  |  | 10 µM | 20 | 200 µM |

From US5266576A, “N-myristoyl transferase inhibitors” (Adir et Compagnie, priority 1991, dated 1993)
